Experimental data reported in PubChem BioAssay (NCI).
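Each compound was tested at five concentrations against cells in 96-well plates for 48 hours. The concentration for full growth arrest is given as TGI.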

Assays:
Assay in all cases: inhibition of tumour cell growth, NCI panel, 48 h
MALME-3M melanoma = system: MALME-3M melanoma
SF-539 CNS = system: SF-539 CNS
SR leukemia = system: SR leukemia
NCI-H23 lung = system: NCI-H23 lung
SF-268 CNS = system: SF-268 CNS
A498 renal = system: A498 renal
U251 CNS = system: U251 CNS
OVCAR-3 ovarian = system: OVCAR-3 ovarian
NCI/ADR-RES ovarian = system: NCI/ADR-RES ovarian
MCF7 breast = system: MCF7 breast
TK-10 renal = system: TK-10 renal

| Compound | TGI (MALME-3M melanoma) [µM] | TGI (SF-539 CNS) [µM] | TGI (SR leukemia) [µM] | TGI (NCI-H23 lung) [µM] | TGI (SF-268 CNS) [µM] | TGI (A498 renal) [µM] | TGI (U251 CNS) [µM] | TGI (OVCAR-3 ovarian) [µM] | TGI (NCI/ADR-RES ovarian) [µM] | TGI (MCF7 breast) [µM] | TGI (TK-10 renal) [µM] |
| --- | --- | --- | --- | --- | --- | --- | --- | --- | --- | --- | --- |
| CCOC(=O)C1C(=O)CC(O)(c2ccccc2)C(C(=O)OCC)C1c1ccc(OC)cc1 (stereo not given) | > 100 | 40.9 | 32.5 | > 100 | > 100 | > 100 | > 76.8 | 42.8 | > 55.9 | > 100 | > 100 |
| Cc1cccc(N(CCC#N)S(=O)(=O)c2ccccc2)c1 | > 100 | > 100 | > 100 | > 100 | > 100 | > 100 | > 100 | > 100 | > 100 | > 100 | > 100 |
| CC(=O)OCC1OC(n2c(=S)[nH]c(-c3ccccc3)c(C#N)c2=O)C(OC(C)=O)C(OC(C)=O)C1OC(C)=O (stereo not given) | > 100 | > 100 | > 100 | > 100 | > 100 | > 100 | > 100 | > 100 | > 100 | > 100 | > 100 |
| Cc1cccc(C[C@@]2(SCc3ccccc3)C(C)(C)[C@@H]3CC[C@@]2(C)C3)n1 | 33 | 55.1 | 31.9 | 31.4 | 29.5 | 28.6 | 30.2 | 29.5 | 30.2 | 26.8 | 34.5 |
| N#Cc1c2c(c(Nc3ccc(F)cc3)n3c1nc1ccccc13)CCC2 | 19.9 | 9.56 | > 100 | 17.6 | 18.1 | 28.8 | 8.01 | 18.5 | 25 | 16 | 6.51 |
| O=C1/C(=C/c2ccc([N+](=O)[O-])cc2)CNC/C1=C\c1ccc([N+](=O)[O-])cc1 | > 100 | 5.59 | 1.15 | 9.77 | 4.47 | 37.3 | 1.67 | 9.61 | 26.3 | > 100 | > 95.8 |
| CSc1c(C(=O)Nc2ccc(C)cc2)c(N)[nH]c(=O)c1C#N | > 100 | > 100 | > 100 | > 100 | > 100 | > 100 | > 100 | > 100 | > 100 | > 100 | > 100 |
| CCC[C@H](C)[C@H]1NC(=O)[C@@H](NC(=O)[C@@H](CC(C)C)N(C)C(=O)C2CCCN2C(=O)[C@H](C)O)[C@@H](C)OC(=O)[C@H](CC(C)C)N(C)C(=O)[C@@H]2CCCN2C(=O)[C@H](CC(C)C)NC(=O)[C@@H](C)C(=O)[C@H](C(C)C)OC(=O)C[C@@H]1O (stereo not given in full) | < 0.0025 | 0.0102 | 0.0422 | 0.00447 | 0.0303 | 0.0376 | < 0.0025 | 0.0117 | 2.62 | 0.25 | 0.0946 |
| CCOC(=O)c1cnc2[nH]ccn2c1=O | > 10 | > 10 | > 10 | > 10 | > 10 | > 10 | > 10 | > 10 | > 10 | > 10 | > 10 |
| O=C1OC[C@@H]2Cc3c([nH]c4ccccc34)[C@@H](c3ccc(O)cc3)N12 | 85.1 | > 74 | > 87.4 | 54.6 | > 100 | > 81 | > 100 | 43.8 | > 100 | > 100 | > 100 |
| O=C1C(Br)=Cc2c(Cl)sc(Cl)c21 | 29 | 15.1 | 15.5 | 30.6 | > 28 | 52.1 | 7.53 | 12.1 | > 100 | 11.5 | 5.23 |
| C/C(=N/NC(=S)Nc1cccc(C)c1)c1ccccn1 | 8 | 5.62 | 2.92 | 9.92 | 13.9 | 3.54 | 4.89 | 0.118 | 0.444 | 0.224 | 4.98 |
| O=C1C(C=NCCc2c[nH]c3ccccc23)C(C(F)(F)F)=NN1c1nc2ccccc2s1 (stereo not given) | > 100 | 86.4 | 93.9 | > 100 | > 100 | 42.1 | > 100 | 50.1 | 78 | 57.2 | 62.1 |
| CO/N=C1/c2sccc2[C@H](NC(=O)CNC(=O)OC(C)(C)C)[C@@H]1O | > 100 | > 100 | > 100 | > 100 | > 100 | > 100 | > 100 | > 100 | > 100 | > 100 | > 100 |
| C=CC/C(C(=O)OC)=C(/C(=O)OC)N(CCC)CCC | > 100 | > 100 | 55.3 | > 100 | > 100 | > 100 | > 100 | > 100 | > 100 | > 100 | > 100 |
| c1ccc2c(c1)CCCN1CCc3ccccc3C21 (stereo not given) | > 100 | 46.5 | > 100 | > 100 | > 100 | > 100 | > 100 | > 100 | > 100 | > 100 | > 100 |
| CN1CN(c2ccccc2)C2(CCN(CCCC3(c4cccs4)OCCO3)CC2)C1=O | > 100 | > 100 | > 100 | > 100 | > 100 | > 100 | > 100 | > 100 | > 100 | > 100 | > 100 |
| CCOc1ccc(N=C/C=C(\Cl)c2ccc3ccccc3c2)cc1 | 30.6 | 39 | 5.31 | 25.1 | 37.4 | > 94.5 | 33.4 | 31.5 | 31.8 | 55.1 | 35.7 |
| CC1=CC=CC(C)(C)CC1(O[Si](C)(C)C)C(F)(F)F (stereo not given) | > 100 | > 100 | > 100 | > 100 | > 100 | > 100 | > 100 | > 100 | > 100 | > 100 | > 100 |
| CCOP(=O)(OCC)/C(F)=C/c1ccccc1 | > 100 | > 100 | > 100 | > 100 | > 100 | > 100 | > 100 | > 100 | > 100 | > 100 | > 100 |
| CC(C)c1c(P(=O)(c2ccccc2)c2ccccc2)n(C)c2ccccc12 | > 100 | > 100 | > 100 | > 100 | > 100 | > 100 | > 100 | > 100 | > 100 | > 100 | > 100 |
| COC(c1ccc(C(C)(C)C)cc1)(c1ccc(C(C)(C)C)cc1)c1cc(C(O)(c2cc(C(OC)(c3ccc(C(C)(C)C)cc3)c3ccc(C(C)(C)C)cc3)c(C)cc2C)c2cc(C(OC)(c3ccc(C(C)(C)C)cc3)c3ccc(C(C)(C)C)cc3)c(C)cc2C)c(C)cc1C | > 100 | > 100 | > 100 | > 100 | > 100 | > 100 | > 100 | > 100 | > 100 | > 100 | > 100 |
| O=C(O[C@H](/C=C/c1ccccc1)P1(=O)N(Cc2ccccc2)[C@@H]2CCCC[C@H]2N1Cc1ccccc1)c1ccccc1 | 12 | 22.2 | > 100 | 7.43 | > 100 | > 100 | 31.3 | 94.3 | 43.1 | > 100 | > 100 |
| Brc1ccc2c3c1[C@@H]1O[C@@H]1c1cccc(c1-3)[C@@H]1O[C@H]21 | 41.6 | 16.5 | > 100 | 33.7 | 63.1 | > 69.1 | 40.2 | 52.6 | 45.4 | > 100 | > 100 |
| CC1=CC(=O)N(n2c(C)n[nH]c2=O)C1=O | > 100 | > 100 | > 100 | > 100 | > 100 | > 100 | > 100 | > 100 | > 100 | > 100 | > 100 |
